The values below come from article PMC10139033, “Identification of Potential p38γ Inhibitors via In Silico Screening, In Vitro Bioassay and Molecular Dynamics Simulation Studies” (International Journal of Molecular Sciences, 2023).

Where two headings read alike, the source gives them in different places.

In test [1] the target is T1, p38γ (Homo sapiens, UniProt P53778).
T1 construct: purchased Promega
T1 sequence (P53778 1-367): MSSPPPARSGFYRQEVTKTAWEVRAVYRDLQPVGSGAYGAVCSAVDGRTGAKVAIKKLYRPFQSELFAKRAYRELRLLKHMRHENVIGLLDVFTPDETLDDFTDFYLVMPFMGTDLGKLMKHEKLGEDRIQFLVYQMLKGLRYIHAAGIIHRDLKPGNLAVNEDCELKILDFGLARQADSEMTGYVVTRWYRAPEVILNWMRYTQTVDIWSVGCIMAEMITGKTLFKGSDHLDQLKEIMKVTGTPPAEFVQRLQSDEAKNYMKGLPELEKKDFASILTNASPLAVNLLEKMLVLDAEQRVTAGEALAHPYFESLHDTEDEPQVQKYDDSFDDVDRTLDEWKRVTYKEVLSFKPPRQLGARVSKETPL
Briefly: p38γ kinase enzyme system with ADP-Glo kinase assay. The format is biochemical. As for the experimental part: The inhibitory assay of p38γ was performed using the p38γ kinase enzyme system (Promega, Madison, WI, USA) with the ADP-Glo™ kinase assay kit (Promega, Madison, WI, USA). The kinase reactions were conducted in a total assay volume of 5 μL in a white 384-well plate. The kinase reaction mixture per well was composed using the reaction buffer supplemented with 50μM DTT and contained 50 ng p38γ, 1μg p38 substrate, 50 μM ATP, and the tested compound at the specified concentrations. Positive control wells receive 5% DMSO instead of 1 μL of the compound solution, and negative control wells are without both compound and enzyme in the reaction. After incubation of the plates at room temperature for 60 min, the reaction was stopped with 5 μL of ADP-Glo™ reagent for 40 min. Next, 10 µL of kinase detection reagent was added and incubated for another 30 min to convert the ADP to ATP. The ATP was then detected by measuring the luminescence using a Victor Nivo multimode microplate reader (PerkinElmer, Waltham, MA, USA) in an integration time of 1 s per well. The relative kinase activity was calculated as follows: p38γ kinase activity %=Lumenescence of compound−luminescence of negative control /Lumenescence of positive control−luminescence of negative control ×100%
(§1) All data were collected from triplicate experiments and presented as the mean ± standard deviation of the mean. Data were analyzed using Graph Prism v9.0.0.121. One sample t test was used to calculate the statistical significance of the differences. p < 0.05 was considered statistically significant. The four-parameter dose-response curves and IC50 values were determined by a non-linear regression curve fitting method.

For the next test, the system named is Huh7 cells. The test can be described thus: CCK-8 cytotoxicity assay, Huh7. The format is cell-based, human. As for the experimental part: (§2) The compounds were tested for HCC cell lines using the Cell Counting Kit-8 (CCK-8) (Absin, Shanghai, China). The human HCC cell lines Huh7 and HepG2 were cultured in high-glucose Dulbecco’s modified Eagle’s medium (DMEM) supplemented with 10% fetal bovine serum (FBS), 1% penicillin, and 1% penicillin/streptomycin at 37 °C with 5% CO2. Huh7 and HepG2 cells were seeded into white 96-well plates at 3 × 10^3 cells per well in 100 μL suspension and pre-incubated overnight. The cells were then treated with different compound concentrations and incubated for 48 h. Control wells just contained cell suspension, while blank wells were added with complete media. The effects on proliferation were determined by the addition of 10 µL CCK-8 reagent, followed by incubation for 1 h. Finally, the absorbance of the reaction was measured at 450 nm using a Victor Nivo Multimode Microplate Reader. Cell viability was calculated as follows: Cell viability%= experimental well absorbance−blank well absorbance /control well absorbance−blank well absorbance ×100%
as §1

A further test relates to HepG2 cells. Briefly: CCK-8 cytotoxicity assay, HepG2. The class given is cell-based, human. The procedure: as §2, §1
Test [2] deals with T1, p38γ. On the set-up: method as in PMID 29758280. Particulars: read-out: experimental IC50 on p38γ; cited from earlier work.

With `O=C(C1CC(=O)N(C2CCS(=O)(=O)C2)C1)N1CCC(c2c[nH]c3ncccc23)CC1` (centres unmarked) [compound 2, 1-(1,1-dioxothiolan-3-yl)-4-[4-(1H-pyrrolo [2,3-b]pyridin-3-yl)piperidine-1-carbonyl]pyrrolidin-2-one], the results for the “reduction of p38γ activity” value on p38γ [1] (1 μM), at p38γ [1] (10 μM) and at p38γ [1] (100 μM) were 72.43%, 93.12% and 96.18%, respectively. Further, the IC50 at p38γ [1] (12-point four-fold dilution from 100 μM, 50 μM ATP) was 0.0168 µM; in the test on Huh7 cells (Homo sapiens, Huh-7, 48 h treatment) it was 11.9 µM; with HepG2 cells (Homo sapiens, HepG2, 48 h treatment) it was 19.2 µM. Moreover, in the test on Huh7 cells (1 µM, 48 h), the “effect on viability of Huh7 cells” value is listed as “no effect”. In addition, the “effect on HCC cell growth (Huh7)” value in the test with Huh7 cells (10 and 100 µM, 48 h) is listed as “potent inhibitory effects”. The “effect on viability of HepG2 cells” value in the test on HepG2 cells (1 µM, 48 h) is given as “no effect”. In addition, in the test with HepG2 cells (10 and 100 µM, 48 h), the “effect on HCC cell growth (HepG2)” value was “potent inhibitory effects”.

Consider `Cc1ccc(=O)n(-c2ccccc2)c1` [pirfenidone], for which the IC50 at p38γ [2] is over 125 µM.
